Assay results as given in US8076487B2, “Pyridone derivative and herbicide” (Kumiai Chemical Industry Co., Ltd., priority 2006, dated 2011).

Legend:
Type in all cases: in vivo
[1] = tested on: green foxtail (Setaria viridis (L.) P. Beauv.); experiment: Test Example 2: herbicidal effect by soil application to upland field; details: soil surface spray, upland field soil, 1,000 g active ingredient per hectare, 21st day after application
In short: (§1)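 Dose was 1,000 g active ingredient per hectare, applied as a wettable powder diluted in water and sprayed evenly over the soil of sown, covered pots at a 1,000 L/ha equivalent. Effect was judged by a standard scale 21 d later under greenhouse conditions.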

[2] = tested on: slender amaranth (Amaranthus viridis L.); experiment: as above; details: soil surface spray, upland field soil, 1,000 g active ingredient per hectare, 21st day after application
In short: as §1

[3] = tested on: barnyardgrass (Echinochloa crus-galli (L.) P. Beauv. var. crus-galli); experiment: as above; details: soil surface spray, upland field soil, 1,000 g active ingredient per hectare, 21st day after application
In short: as §1

[4] = tested on: velvetleaf (Abutilon theophrasti medicus); experiment: as above; details: soil surface spray, upland field soil, 1,000 g active ingredient per hectare, 21st day after application
In short: as §1

[5] = tested on: green foxtail (Setaria viridis (L.) P. Beauv.); experiment: Test Example 3: herbicidal effect by application to upland field (foliage treatment); details: foliage treatment, 1,000 g active ingredient per 1 hectare, 14th day after application, greenhouse
In short: (§2)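 Effect scores come from a standard grading 14 days after plants, grown from seed for two weeks in field soil in a greenhouse, were sprayed over the top with wettable powder in water at 1,000 g active ingredient per hectare.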

[6] = tested on: slender amaranth (Amaranthus viridis L.); experiment: as above; details: foliage treatment, 1,000 g active ingredient per 1 hectare, 14th day after application, greenhouse
In short: as §2

[7] = tested on: barnyardgrass (Echinochloa crus-galli (L.) P. Beauv. var. crus-galli); experiment: as above; details: foliage treatment, 1,000 g active ingredient per 1 hectare, 14th day after application, greenhouse
In short: as §2

[8] = tested on: velvetleaf (Abutilon theophrasti medicus); experiment: as above; details: foliage treatment, 1,000 g active ingredient per 1 hectare, 14th day after application, greenhouse
In short: as §2

[9] = tested on: Japanese bulrush (Scirpus juncoides Roxb.); experiment: Test Example 1: herbicidal effect by soil application to paddy field; details: paddy field soil application; active ingredient 1,000 g per 1 hectare; wettable powder added dropwise to water surface the day after sowing; examined on the 21st day after application
In short: (§3)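 Under greenhouse conditions, seeds sown on puddled paddy soil in 100 cm2 pots under 3 cm of standing water received the test compound; injury was assessed with a standard scoring scheme three weeks (day 21) after treatment.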

[10] = tested on: early watergrass (Echinochloa oryzicola Vasing); experiment: as above; details: paddy field soil application; active ingredient 1,000 g per 1 hectare; wettable powder added dropwise to water surface the day after sowing; examined on the 21st day after application
In short: as §3

[11] = tested on: heartshape false pickerelweed (Monochoria vaginalis (Burm.f.) C.Presl); experiment: as above; details: paddy field soil application; active ingredient 1,000 g per 1 hectare; wettable powder added dropwise to water surface the day after sowing; examined on the 21st day after application
In short: as §3

O=C1CCCC(O)=C1C(=O)c1cc(Br)c(C(F)F)n(-c2ccccc2)c1=O [I-224]
herbicidal effect (index), Green Foxtail [1]: 5 (90% or more of herbicidal effect and crop phytotoxicity) | herbicidal effect (index), Slender Amaranth [2]: 5 (90% or more of herbicidal effect and crop phytotoxicity) | herbicidal effect (index), Barnyardgrass [3]: 5 (90% or more of herbicidal effect and crop phytotoxicity) | herbicidal effect (index), Velvetleaf [4]: 5 (90% or more of herbicidal effect and crop phytotoxicity) | herbicidal effect, Green Foxtail [5]: 5 (90% or more of herbicidal effect and crop phytotoxicity) | herbicidal effect, Slender Amaranth [6]: 5 (90% or more of herbicidal effect and crop phytotoxicity) | herbicidal effect, Barnyardgrass [7]: 5 (90% or more of herbicidal effect and crop phytotoxicity) | herbicidal effect, Velvetleaf [8]: 5 (90% or more of herbicidal effect and crop phytotoxicity) | herbicidal effect, Scirpus juncoides Roxb. [9]: 5 (90% or more of herbicidal effect and crop phytotoxicity) | herbicidal effect, Echinochloa oryzicola Vasing [10]: 5 (90% or more of herbicidal effect and crop phytotoxicity) | herbicidal effect, Monochoria vaginalis (Burm. f.) C. Presl [11]: 5 (90% or more of herbicidal effect and crop phytotoxicity)

Cn1c(C(F)(F)C(F)(F)F)ccc(C(=O)C2=C(O)CCCC2=O)c1=O [I-227]
herbicidal effect (index), Green Foxtail [1]: 5 (90% or more of herbicidal effect and crop phytotoxicity) | herbicidal effect (index), Slender Amaranth [2]: 5 (90% or more of herbicidal effect and crop phytotoxicity) | herbicidal effect (index), Barnyardgrass [3]: 4 (70 to less than 90% of herbicidal effect and crop phytotoxicity) | herbicidal effect (index), Velvetleaf [4]: 5 (90% or more of herbicidal effect and crop phytotoxicity) | herbicidal effect, Green Foxtail [5]: 5 (90% or more of herbicidal effect and crop phytotoxicity) | herbicidal effect, Slender Amaranth [6]: 5 (90% or more of herbicidal effect and crop phytotoxicity) | herbicidal effect, Barnyardgrass [7]: 3 (50 to less than 70% of herbicidal effect and crop phytotoxicity) | herbicidal effect, Velvetleaf [8]: 5 (90% or more of herbicidal effect and crop phytotoxicity) | herbicidal effect, Scirpus juncoides Roxb. [9]: 5 (90% or more of herbicidal effect and crop phytotoxicity) | herbicidal effect, Echinochloa oryzicola Vasing [10]: 5 (90% or more of herbicidal effect and crop phytotoxicity) | herbicidal effect, Monochoria vaginalis (Burm. f.) C. Presl [11]: 5 (90% or more of herbicidal effect and crop phytotoxicity)

CCc1ccc(C(=O)C2=C(O)CCCC2=O)c(=O)n1-c1ccccc1 [I-230]
herbicidal effect (index), Green Foxtail [1]: 5 (90% or more of herbicidal effect and crop phytotoxicity) | herbicidal effect (index), Slender Amaranth [2]: 5 (90% or more of herbicidal effect and crop phytotoxicity) | herbicidal effect (index), Barnyardgrass [3]: 4 (70 to less than 90% of herbicidal effect and crop phytotoxicity) | herbicidal effect (index), Velvetleaf [4]: 5 (90% or more of herbicidal effect and crop phytotoxicity) | herbicidal effect, Green Foxtail [5]: 4 (70 to less than 90% of herbicidal effect and crop phytotoxicity) | herbicidal effect, Slender Amaranth [6]: 5 (90% or more of herbicidal effect and crop phytotoxicity) | herbicidal effect, Barnyardgrass [7]: 5 (90% or more of herbicidal effect and crop phytotoxicity) | herbicidal effect, Velvetleaf [8]: 5 (90% or more of herbicidal effect and crop phytotoxicity) | herbicidal effect, Scirpus juncoides Roxb. [9]: 5 (90% or more of herbicidal effect and crop phytotoxicity) | herbicidal effect, Echinochloa oryzicola Vasing [10]: 5 (90% or more of herbicidal effect and crop phytotoxicity) | herbicidal effect, Monochoria vaginalis (Burm. f.) C. Presl [11]: 5 (90% or more of herbicidal effect and crop phytotoxicity)
